“And” between values parts separate entries of the source, which are not always exact repeats. Identical values can stand only once. Like-named read-outs stand apart in the source and are kept apart here.
What was measured:
[1] = system: 13 M. tuberculosis pan-susceptible strains; assay: MIC determination on HSTB agar, susceptible strains; format: cell-based
[2] = system: ten strains previously identified as INH-resistant; assay: microbe, parasite or virus in culture; format: cell-based, M. tuberculosis; conditions: Mycobacterium tuberculosis, HSTB agar; greater than 3.2 eight strains, 1.6 one strain
strain H37Rv = format: cell-based, M. tuberculosis
strain 9719 [3] = format: cell-based, M. tuberculosis; conditions: for Proportions (%%) of resistant bacteria as determined by agar plates containing the drug (μg/ml) 300 / Proportions (%%) of resistant bacteria as determined by agar plates containing the drug (μg/ml) 900 / Proportions (%%) of resistant bacteria as determined by agar plates containing the drug (μg/ml) 1200: strain 9719
strain 9719 [4] = assay: microbe, parasite or virus in culture; format: cell-based, M. tuberculosis; conditions: read-out: MIC (μg/ml) BACTEC
[5] = system: 55 M. tuberculosis clinical isolates; format: cell-based
[6] = 0% of resistant bacteria incorporated
[7] = 10% of resistant bacteria incorporated
[8] = 25% of resistant bacteria incorporated
[9] = 50% of resistant bacteria incorporated
[10] = 100% of resistant bacteria (resistant mutant)
[11] = strains Susceptible by the BACTEC 300 μg/ml
[12] = strains Susceptible by the BACTEC 900 μg/ml

NNC(=O)c1ccncc1 [INH, isoniazid]
critical concentration for detection of the high level of resistance [1]: 1.0 µg/mL | critical concentration for detection of the low level of resistance [1]: 0.2 µg/mL | MIC [2]: > 3.2 µg/mL

NC(=O)c1cnccn1 [PZA, pyrazinamide]
MIC (μg/ml) Agar (strain H37Rv): 900 µg/mL and >1200 µg/mL | growth in the agar medium with the drug (strain 9719 [3]; pansusceptible strain 9719, all drug-concentrations (300, 900, 1200 μg/ml)): completely inhibited | Proportions (%%) of resistant bacteria as determined by agar plates containing the drug (μg/ml) 300 (strain 9719 [3]; [6]): 0% | Proportions (%%) of resistant bacteria as determined by agar plates containing the drug (μg/ml) 900 (strain 9719 [3]; [6]): 0% | Proportions (%%) of resistant bacteria as determined by agar plates containing the drug (μg/ml) 1200 (strain 9719 [3]; [6]): 0% | Proportions (%%) of resistant bacteria as determined by agar plates containing the drug (μg/ml) 300 (strain 9719 [3]; [7]): 13.8% | Proportions (%%) of resistant bacteria as determined by agar plates containing the drug (μg/ml) 900 (strain 9719 [3]; [7]): 8.6% | Proportions (%%) of resistant bacteria as determined by agar plates containing the drug (μg/ml) 1200 (strain 9719 [3]; [7]): 8.6% | Proportions (%%) of resistant bacteria as determined by agar plates containing the drug (μg/ml) 300 (strain 9719 [3]; [8]): 18.1% | Proportions (%%) of resistant bacteria as determined by agar plates containing the drug (μg/ml) 900 (strain 9719 [3]; [8]): 16.2% | Proportions (%%) of resistant bacteria as determined by agar plates containing the drug (μg/ml) 1200 (strain 9719 [3]; [8]): 16.5% | Proportions (%%) of resistant bacteria as determined by agar plates containing the drug (μg/ml) 300 (strain 9719 [3]; [9]): 35.9% | Proportions (%%) of resistant bacteria as determined by agar plates containing the drug (μg/ml) 900 (strain 9719 [3]; [9]): 36.9% | Proportions (%%) of resistant bacteria as determined by agar plates containing the drug (μg/ml) 1200 (strain 9719 [3]; [9]): 40.0% | Proportions (%%) of resistant bacteria as determined by agar plates containing the drug (μg/ml) 300 (strain 9719 [3]; [10]): 97.8% | Proportions (%%) of resistant bacteria as determined by agar plates containing the drug (μg/ml) 900 (strain 9719 [3]; [10]): 96.1% | Proportions (%%) of resistant bacteria as determined by agar plates containing the drug (μg/ml) 1200 (strain 9719 [3]; [10]): 86.2% | MIC (strain 9719 [4]; Mycobacterium tuberculosis, 9719, pH 6, strain 9719, 0% of resistant bacteria incorporated): ≤ 100 µg/mL | MIC (strain 9719 [4]; Mycobacterium tuberculosis, 9719, pH 6, strain 9719, 10% of resistant bacteria incorporated): > 900 µg/mL | MIC (strain 9719 [4]; Mycobacterium tuberculosis, 9719, pH 6, strain 9719, 25% of resistant bacteria incorporated): > 900 µg/mL | MIC (strain 9719 [4]; Mycobacterium tuberculosis, 9719, pH 6, strain 9719, 50% of resistant bacteria incorporated): > 900 µg/mL | Number of strains by the agar proportion method, 900 μg/ml Resistant [5]: 27 | Number of strains by the agar proportion method, 1200 μg/ml Resistant [5]: 27 and 26 | Number of strains by the agar proportion method, 900 μg/ml Resistant [5, 11]: 0 | Number of strains by the agar proportion method, 1200 μg/ml Resistant [5, 11]: 0 | Number of strains by the agar proportion method, 900 μg/ml Resistant [5, 12]: 2 | Number of strains by the agar proportion method, 1200 μg/ml Resistant [5, 12]: 1
